From PubChem BioAssay AID248 (DTP/NCI, 2004)
Values joined by “and” are separate entries in the source; they are usually repeats but may differ in a detail not shown here. Identical values can stand only once. Toxic doses and inconclusive results are not listed. No stated cut-off is given here; in the data, active means T/C of 150% or more; inactive means T/C below 125%.

Test system: L1210 leukemia ip in BDF1 mice, survival T/C
Assay: NCI In Vivo Anticancer Drug Screen. Data for tumor model L1210 Leukemia (intraperitoneal) in B6D2F1 (BDF1) mice
Conditions: endpoint: mean survival time, higher = longer survival
Outline: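 Mice bearing the transplanted tumor received compound or vehicle. Survival of the treated group was divided by that of the vehicle-treated control group to give the ratio.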

[1] = dose: 12.5 mg/kg/injection, schedule: Q04DX003 (ip), vehicle: saline with Tween-80
[2] = dose: 100.0 mg/kg/injection, schedule: Q01DX001 (ip), vehicle: carboxymethylcellulose (CMC)
[3] = dose: 200.0 mg/kg/injection, schedule: Q01DX001 (ip), vehicle: carboxymethylcellulose (CMC)
[4] = dose: 100.0 mg/kg/injection, schedule: Q04DX003 (ip), vehicle: saline with Tween-80
[5] = dose: 200.0 mg/kg/injection, schedule: Q04DX003 (ip), vehicle: saline with Tween-80
[6] = dose: 400.0 mg/kg/injection, schedule: Q04DX003 (ip), vehicle: saline with Tween-80
[7] = dose: 100.0 mg/kg/injection, schedule: Q01DX009 (ip), vehicle: saline with Tween-80
[8] = dose: 200.0 mg/kg/injection, schedule: Q01DX009 (ip), vehicle: saline with Tween-80
[9] = dose: 400.0 mg/kg/injection, schedule: Q01DX009 (ip), vehicle: saline with Tween-80
[10] = dose: 100.0 mg/kg/injection, schedule: Q01DX009 (ip), vehicle: Klucel (hydroxypropylcellulose) (HPC)
[11] = dose: 200.0 mg/kg/injection, schedule: Q01DX009 (ip), vehicle: Klucel (hydroxypropylcellulose) (HPC)
[12] = dose: 400.0 mg/kg/injection, schedule: Q01DX009 (ip), vehicle: Klucel (hydroxypropylcellulose) (HPC)
[13] = dose: 100.0 mg/kg/injection, schedule: Q04DX003 (ip), vehicle: Klucel (hydroxypropylcellulose) (HPC)
[14] = dose: 200.0 mg/kg/injection, schedule: Q04DX003 (ip), vehicle: Klucel (hydroxypropylcellulose) (HPC)
[15] = dose: 400.0 mg/kg/injection, schedule: Q04DX003 (ip), vehicle: Klucel (hydroxypropylcellulose) (HPC)

Measured: T/C

CC1CC[N-]CC1.CC1CC[N-]CC1.[Br][Pt+2]([Br])([Br])[Br]
inactive: dose: 6.25 mg/kg/injection, schedule: Q01DX009 (ip), vehicle: saline with Tween-80 108 % of control | dose: 12.5 mg/kg/injection, schedule: Q01DX009 (ip), vehicle: saline with Tween-80 113 % of control | [1] 104 % of control | dose: 25.0 mg/kg/injection, schedule: Q04DX003 (ip), vehicle: saline with Tween-80 105 % of control

N#Cc1cn(C2OC(CO)C(O)C2O)c2ncn(O)c(=N)c12 (stereo unspecified)
inactive: dose: 0.19 mg/kg/injection, schedule: Q01DX005 (ip), vehicle: saline 112 % of control | dose: 0.19 mg/kg/injection, schedule: Q01DX009 (ip), vehicle: saline 107 % of control | dose: 0.39 mg/kg/injection, schedule: Q01DX005 (ip), vehicle: saline 96 % of control | dose: 0.39 mg/kg/injection, schedule: Q01DX009 (ip), vehicle: saline 97 % of control | dose: 0.78 mg/kg/injection, schedule: Q01DX005 (ip), vehicle: saline 100 % of control | dose: 0.78 mg/kg/injection, schedule: Q01DX009 (ip), vehicle: saline 100 % of control | dose: 1.56 mg/kg/injection, schedule: Q01DX005 (ip), vehicle: saline 94 % of control

CC(=O)OCCC/C(=C\c1ccc(Br)cc1)[N+](=O)[O-]
inactive: [2] 97 % of control | [3] 97 % of control

NC(=O)N/N=C/CSCc1ccccc1
inactive: [4] 102 % of control | [5] 97 % of control | [6] 92 % of control

CN(N=O)C(=O)NCCc1ccc(OC(=O)N(C)N=O)cc1
inactive: dose: 0.78 mg/kg/injection, schedule: Q01DX Z (ip), vehicle: carboxymethylcellulose (CMC) 98 % of control | dose: 1.56 mg/kg/injection, schedule: Q01DX Z (ip), vehicle: carboxymethylcellulose (CMC) 110 % of control | dose: 3.12 mg/kg/injection, schedule: Q01DX Z (ip), vehicle: carboxymethylcellulose (CMC) 95 % of control | dose: 6.25 mg/kg/injection, schedule: Q01DX Z (ip), vehicle: carboxymethylcellulose (CMC) 113 % of control | dose: 12.5 mg/kg/injection, schedule: Q01DX Z (ip), vehicle: carboxymethylcellulose (CMC) 118 % of control | dose: 25.0 mg/kg/injection, schedule: Q01DX Z (ip), vehicle: carboxymethylcellulose (CMC) 124 % of control | dose: 50.0 mg/kg/injection, schedule: Q01DX Z (ip), vehicle: carboxymethylcellulose (CMC) 91 % of control

CCCCOC(=O)c1ccc(OC(=O)Nc2ccc(C)cc2[N+](=O)[O-])cc1
inactive: dose: 50.0 mg/kg/injection, schedule: Q01DX009 (ip), vehicle: saline + alcohol 97 % of control | dose: 100.0 mg/kg/injection, schedule: Q01DX009 (ip), vehicle: saline + alcohol 123 % of control | dose: 200.0 mg/kg/injection, schedule: Q01DX009 (ip), vehicle: saline + alcohol 103 % of control

CCCCCCCCCCCC(=O)Nc1ccc(NC(C)=O)cc1
inactive: [7] 96 % of control and 104 % of control | dose: 100.0 mg/kg/injection, schedule: Q04DX002 (ip), vehicle: saline with Tween-80 93 % of control and 94 % of control | [4] 95 % of control | [8] 93 % of control and 96 % of control | dose: 200.0 mg/kg/injection, schedule: Q04DX002 (ip), vehicle: saline with Tween-80 111 % of control and 91 % of control | [5] 108 % of control | [9] 96 % of control | dose: 400.0 mg/kg/injection, schedule: Q04DX002 (ip), vehicle: saline with Tween-80 96 % of control and 102 % of control | [6] 95 % of control

FC(F)(F)c1cccc(NC(=S)SCc2ccccc2)c1
inactive: dose: 75.0 mg/kg/injection, schedule: Q04DX003 (ip), vehicle: saline with Tween-80 95 % of control | dose: 150.0 mg/kg/injection, schedule: Q04DX003 (ip), vehicle: saline with Tween-80 98 % of control | dose: 300.0 mg/kg/injection, schedule: Q04DX003 (ip), vehicle: saline with Tween-80 102 % of control

C[N+](C)(C)CCOC(=O)C1C2CC3OC(=O)C1C3C2 (stereo unspecified)
inactive: dose: 100.0 mg/kg/injection, schedule: Q04DX003 (ip), vehicle: saline 98 % of control | dose: 200.0 mg/kg/injection, schedule: Q04DX003 (ip), vehicle: saline 102 % of control | dose: 400.0 mg/kg/injection, schedule: Q04DX003 (ip), vehicle: saline 96 % of control

CCCCNCCN(CC)CC
inactive: [4] 98 % of control

Cc1cccc(C)c1-n1c(=S)[nH]n(-c2ccccc2)c1=S
inactive: [7] 91 % of control | [4] 96 % of control | [8] 93 % of control | [5] 96 % of control | [9] 94 % of control | [6] 105 % of control

CC(=O)c1cccc(NC(=O)Oc2ccc(-c3ccccc3)cc2Cl)c1
inactive: [10] 98 % of control | [11] 97 % of control | [12] 106 % of control

Fc1cnc(OC23CC4CC(CC(C4)C2)C3)nc1OC12CC3CC(CC(C3)C1)C2
inactive: [13] 86 % of control | [14] 88 % of control | [15] 88 % of control

CNC(c1ccncc1)C(NC)c1ccncc1 (stereo unspecified)
inactive: [10] 94 % of control | [13] 95 % of control | [11] 91 % of control | [14] 95 % of control | [12] 96 % of control | [15] 95 % of control

COCCNP(=S)(OC)OC
inactive: [7] 93 % of control | [4] 101 % of control | [8] 95 % of control | [5] 106 % of control | [9] 101 % of control | [6] 92 % of control

CC(O)c1cccc(N(C)C)c1 (stereo unspecified)
inactive: dose: 50.0 mg/kg/injection, schedule: Q01DX009 (ip), vehicle: acetone 93 % of control | dose: 100.0 mg/kg/injection, schedule: Q01DX009 (ip), vehicle: acetone 95 % of control | dose: 100.0 mg/kg/injection, schedule: Q04DX003 (ip), vehicle: acetone 96 % of control | dose: 200.0 mg/kg/injection, schedule: Q01DX009 (ip), vehicle: acetone 93 % of control | dose: 200.0 mg/kg/injection, schedule: Q04DX003 (ip), vehicle: acetone 96 % of control | dose: 400.0 mg/kg/injection, schedule: Q04DX003 (ip), vehicle: acetone 101 % of control

O=C1c2ccccc2-c2c(N=Cc3ccc4c(c3)OCO4)c(Br)cc(Br)c21
inactive: dose: 100.0 mg/kg/injection, schedule: Q01DX001 (ip), vehicle: other 93 % of control | dose: 200.0 mg/kg/injection, schedule: Q01DX001 (ip), vehicle: other 98 % of control | dose: 400.0 mg/kg/injection, schedule: Q01DX001 (ip), vehicle: other 95 % of control

CCCCCCCCCCCCCCCC[N+](C)(C)CCCCCCCCCCCCCCCC
inactive: dose: 3.12 mg/kg/injection, schedule: Q03DX003 (ip), vehicle: saline with Tween-80 103 % of control | dose: 6.25 mg/kg/injection, schedule: Q03DX003 (ip), vehicle: saline with Tween-80 100 % of control | dose: 12.5 mg/kg/injection, schedule: Q03DX003 (ip), vehicle: saline with Tween-80 103 % of control | [1] 93 % of control

C[PH+](c1ccccc1)c1ccccc1.C[PH+](c1ccccc1)c1ccccc1.O=C([S-])[S-].[Pt+2]
inactive: dose: 75.0 mg/kg/injection, schedule: Q04DX003 (ip), vehicle: saline 97 % of control | dose: 150.0 mg/kg/injection, schedule: Q04DX003 (ip), vehicle: saline 92 % of control | dose: 300.0 mg/kg/injection, schedule: Q04DX003 (ip), vehicle: saline 100 % of control

O=c1[nH]c(=S)[nH]cc1Cc1cccc2ccccc12
inactive: dose: 25.0 mg/kg/injection, schedule: Q01DX001 (ip), vehicle: Klucel (hydroxypropylcellulose) (HPC) 104 % of control | dose: 50.0 mg/kg/injection, schedule: Q01DX001 (ip), vehicle: Klucel (hydroxypropylcellulose) (HPC) 94 % of control | dose: 100.0 mg/kg/injection, schedule: Q01DX001 (ip), vehicle: Klucel (hydroxypropylcellulose) (HPC) 92 % of control

CCOC(=O)C(Cc1ccc(O)c([N+](=O)[O-])c1)N1C(=O)c2ccccc2C1=O (stereo unspecified)
inactive: dose: 100.0 mg/kg/injection, schedule: Q01DX001 (ip), vehicle: saline 107 % of control | dose: 200.0 mg/kg/injection, schedule: Q01DX001 (ip), vehicle: saline 92 % of control | dose: 400.0 mg/kg/injection, schedule: Q01DX001 (ip), vehicle: saline 95 % of control

O=C1c2ccccc2C(=O)N1C1CCC(CO)C1 (stereo unspecified)
inactive: [2] 106 % of control | [3] 102 % of control | dose: 400.0 mg/kg/injection, schedule: Q01DX001 (ip), vehicle: carboxymethylcellulose (CMC) 91 % of control
